A word on the IC50: it is the concentration at which inhibition is half-maximal.

The record followed here is patent US7919504B2, “Thiadiazole modulators of PKB” (Amgen Inc., priority 2007, dated 2011).

The structures appear in SMILES notation. Counter-ions that a name gives are not always drawn.

T1 sequence (P31749 118-480 limits assumed): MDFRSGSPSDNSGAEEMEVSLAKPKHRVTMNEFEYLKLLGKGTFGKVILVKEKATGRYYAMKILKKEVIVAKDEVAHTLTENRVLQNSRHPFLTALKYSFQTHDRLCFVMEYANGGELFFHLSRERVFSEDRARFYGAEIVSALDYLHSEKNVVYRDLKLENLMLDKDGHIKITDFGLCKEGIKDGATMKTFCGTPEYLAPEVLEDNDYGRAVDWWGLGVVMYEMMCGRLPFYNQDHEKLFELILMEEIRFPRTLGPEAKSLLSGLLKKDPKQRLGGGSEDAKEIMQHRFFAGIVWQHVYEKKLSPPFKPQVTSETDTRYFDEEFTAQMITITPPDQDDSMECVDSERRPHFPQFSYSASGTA

This test has as its target T1, PKBα (Homo sapiens, UniProt P31749).
T1 construct: the full length PKBα and a kinase domain of PKBα with pleckstrin domain (amino acids 1-117) deleted
The experiment in a line: PKB kinase assay (P33-labeled ATP, synthetic peptide substrate, filter plate capture). The format is biochemical. The settings on record: with respect to PKBα. The source says: The kinase assay for evaluating PKB activity comprises active PKB enzymes, a PKB specific substrate, and P^33-labeled ATP. Two form of PKBα enzymes were used, the full length PKBα and a kinase domain of PKBα with pleckstrin domain (amino acids 1-117) deleted. Both PKB enzymes were obtained from Upstate cell signaling solutions (Cat. #14-276 and 14-341). The PKB substrate used is a synthetic peptide (ARKRERTYSFGHHA (SEQ ID NO: 1)) as described in Obata et al., J. Biol. Chem. 275 (46), 36108-36115 (2000). The phosphorylated substrate was captured by a phosphocellulose membrane filter plate (MILLIPORE) and measured by a Wallac Microbeta liquid scintillation counter (Perkin Elmer). Table 1 provides the IC50 values obtained for each of the examples with respect to PKBα.
In turn, `N[C@H](CNc1nnc(-c2ccc3cnsc3c2)s1)Cc1ccc(C(F)(F)F)cc1` [Example 42, N-((S)-2-Amino-3-(4-(trifluoromethyl)phenyl)propyl)-5-(benzo[d]isothiazol-6-yl)-1,3,4-thiadiazol-2-amine] showed an IC50 of less than 0.05 µM.

For the compound `CC(F)(F)c1ccc(C[C@H](N)CNc2nnc(-c3ccc4c(c3)CC(=O)N4)s2)cc1` [Example 4, 5-(5-((S)-2-Amino-3-(4-(1,1-difluoroethyl)phenyl)propylamino)-1,3,4-thiadiazol-2-yl)indolin-2-one], the IC50 was less than 0.05 µM.

For `CC1(C)C2CC[C@H](CNc3nnc(-c4ccc5cnccc5c4)s3)C1C2` (stereo partly drawn) [Example 15, N-(((2S)-6,6-Dimethylbicyclo[3.1.1]heptan-2-yl)methyl)-5-(isoquinolin-6-yl)-1,3,4-thiadiazol-2-amine], the IC50 lay in the range of 0.05 to 1 µM.

`OC(CNc1nnc(-c2ccc3cnccc3c2)s1)Cc1ccccc1` (racemic) [Example 29, (±)-1-(5-(isoquinolin-6-yl)-1,3,4-thiadiazol-2-ylamino)-3-phenylpropan-2-ol] registered an IC50 of 0.05 to 1 µM.

In turn, `N[C@H](CNc1nnc(-c2cc3c(cc2F)NC(=O)C3)s1)Cc1ccc(C(F)(F)F)cc1` [Example 3, 5-(5-((S)-2-Amino-3-(4-(trifluoromethyl)phenyl)propylamino)-1,3,4-thiadiazol-2-yl)-6-fluoroindolin-2-one] gave an IC50 of 0.05 to 1 µM.

In turn, `CC1(C)C2CCC1(C)C(Nc1nnc(-c3ccc4cnccc4c3)s1)C2` (centres unmarked) [Example 20, 5-(Isoquinolin-6-yl)-N-(1,7,7-trimethylbicyclo[2.2.1]heptan-2-yl)-1,3,4-thiadiazol-2-amine] gave an IC50 of 1 to 10 µM.

For `FC(F)(F)c1ccc([C@@H]2CCN[C@@H]2CNc2nnc(-c3ccc4cnccc4c3)s2)cc1` [Example 27, 5-(Isoquinolin-6-yl)-N-(((2S,3S)-3-(4-(trifluoromethyl)phenyl)pyrrolidin-2-yl)methyl)-1,3,4-thiadiazol-2-amine], the IC50 lay in the range of 1 to 10 µM.

Take `CC(C)n1c(=O)[nH]c2ccc(-c3nnc(NC[C@@H](N)Cc4ccc(C(F)(F)F)cc4)s3)cc21` [Example 5, 6-(5-((S)-2-Amino-3-(4-(trifluoromethyl)phenyl)propylamino)-1,3,4-thiadiazol-2-yl)-1-isopropyl-1H-benzo[d]imidazol-2(3H)-one]: the IC50 fell in the range of 1 to 10 µM.

In turn, `c1ccc([C@@H]2CCN[C@@H]2CNc2nnc(-c3ccc4cnccc4c3)s2)cc1` (racemic) [Example 33, Racemic mixture of 5-(isoquinolin-6-yl)-N-(((2S,3S)-3-phenylpyrrolidin-2-yl)methyl)-1,3,4-thiadiazol-2-amine and 5-(isoquinolin-6-yl)-N-(((2R,3R)-3-phenylpyrrolidin-2-yl)methyl)-1,3,4-thiadiazol-2-amine] had an IC50 of 0.05 to 1 µM.

For the compound `N[C@H](CNc1nnc(-c2ccc3c(c2)CC(=O)N3)s1)Cc1ccc(C(F)(F)F)cc1` [Example 2, 5-(5-((S)-2-amino-3-(4-(trifluoromethyl)phenyl)propylamino)-1,3,4-thiadiazol-2-yl)indolin-2-one], the IC50 was less than 0.05 µM.

The compound `NC(CNc1nnc(-c2cccc3cnncc23)s1)Cc1ccc(C(F)(F)F)cc1` (stereo in doubt) [Example 28, N-((S)-2-amino-3-(4-(trifluoromethyl)phenyl)propyl)-5-(phthalazin-5-yl)-1,3,4-thiadiazol-2-amine] came in with an IC50 of 1 to 10 µM.

For the compound `N[C@H](CNc1nnc(-c2ccc3[nH]c(=O)oc3c2)s1)Cc1ccc(Cl)cc1` [Example 50, 6-(5-((S)-2-Amino-3-(4-chlorophenyl)propylamino)-1,3,4-thiadiazol-2-yl)benzo[d]oxazol-2(3H)-one], the IC50 was less than 0.05 µM.

In turn, `N[C@H](CCc1nnc(-c2ccc3c(c2)CC(=O)N3)s1)Cc1ccc(C(F)(F)F)nc1` [Example 47, 5-(5-((R)-3-Amino-4-(6-(trifluoromethyl)pyridin-3-yl)butyl)-1,3,4-thiadiazol-2-yl)indolin-2-one trifluoroacetate] showed an IC50 of 0.05 to 1 µM.

Compound `Oc1cccc(C(O)CNc2nnc(-c3ccc4cnccc4c3)s2)c1` (racemic) [Example 24, (±)-3-(1-Hydroxy-2-(5-(isoquinolin-6-yl)-1,3,4-thiadiazol-2-ylamino)ethyl)phenol] gave an IC50 of 1 to 10 µM.

As for `N[C@H](CCc1nnc(-c2ccc3[nH]c(=O)oc3c2)s1)Cc1ccc(C(F)(F)F)cc1` [Example 49, 6-(5-((R)-3-Amino-4-(4-(trifluoromethyl)phenyl)butyl)-1,3,4-thiadiazol-2-yl)benzo[d]oxazol-2(3H)-one], the IC50 was less than 0.05 µM.

`N[C@H](CCc1nnc(-c2ccc3[nH]ncc3c2)s1)Cc1ccc(C(F)(F)F)nc1` [Example 46, (2R)-4-(5-(1H-Indazol-5-yl)-1,3,4-thiadiazol-2-yl)-1-(6-(trifluoromethyl)pyridin-3-yl)butan-2-amine] gave an IC50 of less than 0.05 µM.

With `N[C@H](CCc1nnc(-c2ccc3cnc(F)cc3c2)s1)Cc1ccc(C(F)(F)F)cc1` [Example 48, (2R)-4-(5-(3-Fluoroisoquinolin-6-yl)-1,3,4-thiadiazol-2-yl)-1-(4-(trifluoromethyl)phenyl)butan-2-amine], the IC50 is less than 0.05 µM.

Consider `N[C@H](C(=O)Nc1nnc(-c2ccc3cnccc3c2)s1)[C@@H](CO)c1ccc(C(F)(F)F)cc1` [Example 31, (2S,3S)-2-Amino-4-hydroxy-N-(5-(isoquinolin-6-yl)-1,3,4-thiadiazol-2-yl)-3-(4-(trifluoromethyl)phenyl)butanamide hydrochloride], for which the IC50 was in the range of 1 to 10 µM.

Compound `N[C@H](CNc1nnc(-c2ccc3ncncc3c2)s1)Cc1ccc(C(F)(F)F)cc1` [Example 25, N-((S)-2-Amino-3-(4-(trifluoromethyl)phenyl)propyl)-5-(quinazolin-6-yl)-1,3,4-thiadiazol-2-amine] returned an IC50 of 0.05 to 1 µM.

The compound `C[C@@H](c1ccc(C(F)(F)F)cc1)[C@H](N)CNc1nnc(-c2ccc3c(c2)CC(=O)N3)s1` [Example 7, 5-(5-((2S,3S)-2-Amino-3-(4-(trifluoromethyl)phenyl)butylamino)-1,3,4-thiadiazol-2-yl)indolin-2-one] returned an IC50 of less than 0.05 µM.

Regarding `c1ccc2[nH]c(CNc3nnc(-c4ccc5cnccc5c4)s3)nc2c1` [Example 18, N-((1H-Benzo[d]imidazol-2-yl)methyl)-5-(isoquinolin-6-yl)-1,3,4-thiadiazol-2-amine], the IC50 was in the range of 1 to 10 µM.

The compound `N[C@H](CNc1nnc(-c2ccc3[nH]c(=O)oc3c2)s1)Cc1ccc(C(F)(F)F)cc1` [Example 11, 6-(5-((S)-2-Amino-3-(4-(trifluoromethyl)phenyl)propylamino)-1,3,4-thiadiazol-2-yl)benzo[d]oxazol-2(3H)-one] yielded an IC50 of less than 0.05 µM.

Consider `N[C@H](CCc1nnc(-c2ccc3cnccc3c2)s1)Cc1ccc(C(F)(F)F)cc1` [Example 35, (2R)-4-(5-(Isoquinolin-6-yl)-1,3,4-thiadiazol-2-yl)-1-(4-(trifluoromethyl)phenyl)butan-2-amine], for which the IC50 was less than 0.05 µM.

The compound `N[C@H](CNc1nnc(-c2cc3c(Cl)cncc3s2)s1)Cc1cc(F)cc(F)c1` [Example 14, N-((S)-2-Amino-3-(3,5-difluorophenyl)propyl)-5-(4-chlorothieno[2,3-c]pyridin-2-yl)-1,3,4-thiadiazol-2-amine] displayed an IC50 of 0.05 to 1 µM.

Consider `Cn1c(=O)[nH]c2ccc(-c3nnc(NC[C@@H](N)Cc4ccc(C(F)(F)F)cc4)s3)cc21` [Example 1, 6-(5-((S)-2-Amino-3-(4-(trifluoromethyl)phenyl)propylamino)-1,3,4-thiadiazol-2-yl)-1-methyl-1H-benzo[d]imidazol-2(3H)-one], for which the IC50 was less than 0.05 µM.

In turn, `N[C@H](CNc1nnc(-c2cc3c(Cl)cncc3s2)s1)Cc1cccc(C(F)(F)F)c1` [Example 8, N-((S)-2-amino-3-(3-(trifluoromethyl)phenyl)propyl)-5-(4-chlorothieno[2,3-c]pyridin-2-yl)-1,3,4-thiadiazol-2-amine] had an IC50 of 0.05 to 1 µM.

`Cc1cccc(C[C@H](N)CNc2nnc(-c3cc4c(Cl)cncc4s3)s2)c1` [Example 13, N-((S)-2-Amino-3-m-tolylpropyl)-5-(4-chlorothieno[2,3-c]pyridin-2-yl)-1,3,4-thiadiazol-2-amine] showed an IC50 of 0.05 to 1 µM.

In the case of `N[C@H](CNc1nnc(-c2ccc3c(c2)CC(=O)N3)s1)Cc1ccc(Cl)cc1` [Example 34, 5-(5-((S)-2-Amino-3-(4-chlorophenyl)propylamino)-1,3,4-thiadiazol-2-yl)indolin-2-one], the IC50 was less than 0.05 µM.

`CC(C)=C1C(=O)Nc2ccc(-c3nnc(NC[C@@H](N)Cc4ccc(C(F)(F)F)cc4)s3)cc21` [Example 6, 5-(5-((S)-2-Amino-3-(4-(trifluoromethyl)phenyl)propylamino)-1,3,4-thiadiazol-2-yl)-3-(propan-2-ylidene)indolin-2-one] showed an IC50 of 1 to 10 µM.

As for `c1ccc2[nH]c(CCNc3nnc(-c4ccc5cnccc5c4)s3)nc2c1` [Example 19, N-(2-(1H-Benzo[d]imidazol-2-yl)ethyl)-5-(isoquinolin-6-yl)-1,3,4-thiadiazol-2-amine], the IC50 is 1 to 10 µM.

The compound `N[C@H](CNc1nnc(-c2cc3c(Cl)cncc3s2)s1)Cc1ccc(C(F)(F)F)cc1` [Example 9, N-((S)-2-amino-3-(4-(trifluoromethyl)phenyl)propyl)-5-(4-chlorothieno[2,3-c]pyridin-2-yl)-1,3,4-thiadiazol-2-amine] gave an IC50 of 0.05 to 1 µM.

Consider `OC(CNc1nnc(-c2ccc3cnccc3c2)s1)Cc1ccc(C(F)(F)F)cc1` (racemic) [Example 30, (±)-1-(5-(Isoquinolin-6-yl)-1,3,4-thiadiazol-2-ylamino)-3-(4-(trifluoromethyl)phenyl)propan-2-ol], for which the IC50 lay within 0.05 to 1 µM.
